Measured values as given in patent US12545668B2, “Cyclic amine derivative as agent for promoting advillin function, and novel cyclic amine derivative and pharmaceutical use thereof” (Toray Industries, Inc., priority 2018, dated 2026).

Key:
[1] = system: primary cultured cells of rat dorsal root ganglion; experiment: Axon (neurite) extension in primary cultured cells of rat dorsal root ganglion with oxaliplatin-induced axonal injury; assay type: cell-based; settings: 7 days
Source text: The effect of the cyclic amine derivative (I) or a pharmacologically acceptable salt thereof on neurite extension in primary cultured cells of rat dorsal root ganglion was examined.
Male SD rats (manufactured by Charles River Laboratories Japan, Inc.) of 4 to 7 weeks old were used. Each rat was anesthetized by intraperitoneally administering urethane. After confirming that the rat was anesthetized, the rat was rapidly euthanized by exsanguination from the abdominal aorta. After incision of the dorsal part, the spinal column was excised and cooled on ice. The dorsal side of the spinal column was cut off, and the spinal cord was removed from the ventral side of the spinal column to expose the dorsal root ganglia on the ventral side of the spinal column. The dorsal root ganglia (L3 to 6, right and left) were excised with tweezers, and dipped in ice-cold Leibovitz's L-15 medium (manufactured by Thermo Fisher Scientific), and the bundles of nerve fibers were removed under a stereoscopic microscope. The dorsal root ganglia from which the bundles of nerve fibers had been removed were made fine slits with ophthalmic scissors to be used as dorsal root ganglion pieces.
The dorsal root ganglion pieces were dipped in about 3 mL of a solution of collagenase A (manufactured by Roche Molecular Systems, Inc.), followed by incubation at 37° C. for 20 minutes. After the incubation, the resultant was centrifuged at 200×g at 25° C. for 5 minutes to remove a collagenase A solution corresponding to the supernatant. About 1 mL of a solution of trypsin was added thereto, followed by incubation at 37° C. for 5 minutes. Subsequently, about 3 mL of DMEM (manufactured by Thermo Fisher Scientific K.K.) containing 10% fetal bovine serum was added to the resultant, the resultant centrifuged at 200×g at room temperature for 5 minutes, and then the supernatant removed. […]

[2] = Specific binding of 3H-labeled compound to membrane fraction prepared from rat sciatic nerve; settings: 3H-labeled compound of Example 7, 37° C., 1 hour; relative to dorsal root ganglion
Procedure: (§1) A binding property of a ^3H-labeled cyclic amine derivative (I) to each of membrane fractions prepared from various tissues of a rat was evaluated, and thus, a tissue containing a molecular target of the cyclic amine derivative (I) was clarified.
(§2) As the cyclic amine derivative (I), the compound of Example 7 was used.
(§3) Male SD rats (manufactured by Charles River Laboratories Japan, Inc.) of 7 weeks old were used. Rats were anesthetized with isoflurane, and euthanized by exsanguination from the abdominal aorta using a syringe having an inner wall treated with a heparin sodium injection (manufactured by AY Pharmaceuticals Co., Ltd.). […]
(§4) A homogenate sample of each tissue thus collected was prepared, using a homogenizer, by adding a homogenize buffer (sucrose (1 M), Tris-HCl (0.5 M), and 1× protease inhibitor cocktail (manufactured by Sigma Aldrich), pH 7.6) to the collected tissue. […] The resultant supernatant was ultracentrifuged at 100,000×g at 4° C. for 60 minutes, and the thus obtained precipitate was suspended in Krebs-Ringer bicarbonate buffer (manufactured by Sigma Aldrich) to quantitatively determine the amount of protein using a BCA protein assay kit (manufactured by Thermo Fisher Scientific K.K.). […]

[3] = Specific binding of 3H-labeled compound to membrane fraction prepared from rat spinal cord; settings: 3H-labeled compound of Example 7, 37° C., 1 hour; relative to dorsal root ganglion
Procedure: as §1, §2, §3, §4

CN(C)C1CCN(C(=O)C[C@H](O)c2nccn2C)CC1 [Example 7, (S)-1-(4-(dimethylamino)piperidin-1-yl)-3-hydroxy-3-(1-methyl-1H-imidazol-2-yl)propan-1-one]
length of a neurite compared to the oxaliplatin alone treated group ([1]; 100 μM with oxaliplatin 3 μM, FIG. 4, FIG. 5, p<0.025 Williams): significantly increased
length of a neurite compared to the oxaliplatin alone treated group ([1]; 10, 30 or 100 μM with oxaliplatin 3 μM, FIG. 5): found to increase
specific binding to the membrane fraction prepared from the sciatic nerve, as % of the specific binding to the dorsal root ganglion membrane fraction [2]: 42%
specific binding to the membrane fraction prepared from the spinal cord, as % of the specific binding to the dorsal root ganglion membrane fraction [3]: 23%
